Results as given in the NIST ThermoML archive (doi:10.1016/j.jct.2018.02.016).

Conditions: Gas chromatography

C1C2CC3CC1CC(C2)C3 [adamantane]
Liquid
Conditions | vapor or sublimation pressure [kPa]
298.15 K | 0.13
310 K | 0.26
320 K | 0.46
330 K | 0.77
340 K | 1.3
350 K | 2
360 K | 3.1
370 K | 4.6
380 K | 6.8
390 K | 9.8
400 K | 14
410 K | 19
420 K | 26
430 K | 35
440 K | 46
545 K | 460
555 K | 550
565 K | 650
575 K | 760

CC1=CC[C@@]23C[C@@H]1C(C)(C)[C@@H]2CC[C@H]3C [alpha-cedrene]
Metastable liquid
Conditions | vapor or sublimation pressure [kPa]
298.15 K | 0.0031
310 K | 0.0081
320 K | 0.017
330 K | 0.035
340 K | 0.067
350 K | 0.12
360 K | 0.22
370 K | 0.37
380 K | 0.61
390 K | 0.99
400 K | 1.5
410 K | 2.4
420 K | 3.5
430 K | 5.1
440 K | 7.3
533.2 K | 101.3

C=C1CC[C@@]23C[C@@H]1C(C)(C)[C@@H]2CC[C@H]3C [beta-cedrene]
Metastable liquid
Conditions | vapor or sublimation pressure [kPa]
298.15 K | 0.0031
310 K | 0.0081
320 K | 0.017
330 K | 0.035
340 K | 0.067
350 K | 0.12
360 K | 0.21
370 K | 0.37
380 K | 0.61
390 K | 0.99
400 K | 1.5
410 K | 2.3
420 K | 3.5
430 K | 5.1
440 K | 7.3
533.3 K | 101.3

C1C2CC3C4CC5CC(C14)C(C2)C3C5 [pentacyclo[7.3.1.1(4,12).0(2,7).0(6,11)]tetradecane]
Metastable liquid
Conditions | vapor or sublimation pressure [kPa]
298.15 K | 0.0016
310 K | 0.0043
320 K | 0.0091
330 K | 0.018
340 K | 0.036
350 K | 0.066
360 K | 0.12
370 K | 0.2
380 K | 0.34
390 K | 0.55
400 K | 0.87
410 K | 1.3
420 K | 2
430 K | 3
440 K | 4.3
516 K | 44.3
526 K | 56
536 K | 71
546 K | 89
